# Reference: US9156796B2, “Benzoimidazole-carboxylic acid amide derivatives as APJ receptor modulators” (SANOFI, priority 2013, dated 2015)
# pEC50: −log10 of the molar value.
# Biological target: T1, human apelin receptor (Homo sapiens, UniProt P35414)
# T1 construct: expressed in transfected cells
# T1 sequence (P35414 1-380): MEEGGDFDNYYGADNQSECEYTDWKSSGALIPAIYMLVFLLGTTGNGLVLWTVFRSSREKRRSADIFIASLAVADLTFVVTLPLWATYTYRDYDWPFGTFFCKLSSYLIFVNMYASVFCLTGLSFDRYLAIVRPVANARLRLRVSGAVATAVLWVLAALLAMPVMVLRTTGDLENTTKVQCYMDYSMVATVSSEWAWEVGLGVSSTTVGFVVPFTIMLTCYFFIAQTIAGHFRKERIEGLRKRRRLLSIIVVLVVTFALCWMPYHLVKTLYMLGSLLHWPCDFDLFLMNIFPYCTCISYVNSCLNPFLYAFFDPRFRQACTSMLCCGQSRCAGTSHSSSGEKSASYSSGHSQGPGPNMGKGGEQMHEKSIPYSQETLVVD
# Experiment: Determination of agonism on the human apelin receptor by a calcium fluorescence assay (FLIPR)
# Assay type: cell-based
# Conditions: HEK293 cells stably transfected with human apelin receptor and Giaq protein, Fluo-4 calcium fluorescence, read-out: EC50 (APJ agonism)
# How it was run: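 Agonist EC50s come from peak intracellular calcium transients recorded by FLIPR Tetra, scaled to the 1 μM apelin-13 maximum per plate. Test system: HEK293 stably transfected with human apelin receptor plus Giaq, Fluo-4-loaded (4 μM, 1 h, 37 °C, pH 7.4 buffer with probenecid); ≥7 concentrations, triplicates.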
row,Compound,pEC50
1,"CCC(CC)n1c(Cc2cccs2)nc2cc(C(=O)N[C@H](CC(=O)O)Cc3ccccc3)ccc21 [Example 100, (S)-3-{[1-(1-Ethyl-propyl)-2-thiophen-2-ylmethyl-1H-benzoimidazole-5-carbonyl]-amino}-4-phenyl-butyric acid]",5.23
2,"CC(C)C[C@@H](CC(=O)O)NC(=O)c1ccc2c(c1)nc(Cc1cccs1)n2C1CCCCC1C (stereo partly drawn) [Example 101, (S)-5-Methyl-3-{[1-(2-methyl-cyclohexyl)-2-thiophen-2-ylmethyl-1H-benzoimidazole-5-carbonyl]-amino}-hexanoic acid]",6.97
3,"CC(C)C[C@@H](CC(=O)O)NC(=O)c1ccc2c(c1)nc(Cc1cccs1)n2C1CCCCC1C(F)(F)F (stereo partly drawn) [Example 102, (S)-5-Methyl-3-{[2-thiophen-2-ylmethyl-1-(2-trifluoromethyl-cyclohexyl)-1H-benzoimidazole-5-carbonyl]-amino}-hexanoic acid]",6.61
4,"O=C(O)C[C@H](Cc1ccccc1)NC(=O)c1ccc2c(c1)nc(Cc1cccs1)n2C1CCCCC1C(F)(F)F (stereo partly drawn) [Example 103, (S)-4-Phenyl-3-{[2-thiophen-2-ylmethyl-1-(2-trifluoromethyl-cyclohexyl)-1H-benzoimidazole-5-carbonyl]-amino}-butyric acid]",4.96
5,"CC(C)C[C@@H](CC(=O)O)NC(=O)c1ccc2c(c1)nc(Cc1cccs1)n2C1CCCC1C (stereo partly drawn) [Example 104, (S)-5-Methyl-3-{[1-(2-methyl-cyclopentyl)-2-thiophen-2-ylmethyl-1H-benzoimidazole-5-carbonyl]-amino}-hexanoic acid]",6.32
6,"CCC(CC)n1c(Cc2ccno2)nc2cc(C(=O)N[C@H](CC(=O)O)CC(C)C)ccc21 [Example 105, (S)-3-{[1-(1-Ethyl-propyl)-2-isoxazol-5-ylmethyl-1H-benzoimidazole-5-carbonyl]-amino}-5-methyl-hexanoic acid]",5.26
7,"CC(C)C[C@@H](CC(=O)O)NC(=O)c1ccc2c(c1)nc(Cc1cncs1)n2[C@@H]1CCCC[C@H]1C [Example 106, (S)-5-Methyl-3-{[1-((1R,2R)-2-methyl-cyclohexyl)-2-thiazol-5-ylmethyl-1H-benzoimidazole-5-carbonyl]-amino}-hexanoic acid]",7.32
8,"CCC(CC)n1c(Cc2cccs2)nc2cc(C(=O)N[C@H](CC(=O)O)CC(C)C)ccc21 [Example 107, (S)-3-{[1-(1-Ethyl-propyl)-2-thiophen-2-ylmethyl-1H-benzoimidazole-5-carbonyl]-amino}-5-methyl-hexanoic acid]",7.33
9,"CC(C)C[C@H](NC(=O)c1ccc2c(c1)nc(Cc1cccs1)n2C1CCCCC1)C(=O)O [Example 108, (S)-2-[(1-Cyclohexyl-2-thiophen-2-ylmethyl-1H-benzoimidazole-5-carbonyl)-amino]-4-methyl-pentanoic acid]",5.97
10,"CCC(C)Cn1c(CC2CCCC2)nc2cc(C(=O)N[C@@H](CC(C)C)C(=O)O)ccc21 (stereo partly drawn) [Example 109, (S)-2-{[2-Cyclopentylmethyl-1-(2-methyl-butyl)-1H-benzoimidazole-5-carbonyl]-amino}-4-methyl-pentanoic acid]",5.41
11,"CC(C)C[C@H](NC(=O)c1ccc2c(c1)nc(Cc1cccs1)n2C1CCCC1)C(=O)O [Example 110, (S)-2-[(1-Cyclopentyl-2-thiophen-2-ylmethyl-1H-benzoimidazole-5-carbonyl)-amino]-4-methyl-pentanoic acid]",5.69
12,"CC(C)C[C@H](NC(=O)c1ccc2c(c1)nc(Cc1cccs1)n2C1CCCCCC1)C(=O)O [Example 111, (S)-2-[(1-Cycloheptyl-2-thiophen-2-ylmethyl-1H-benzoimidazole-5-carbonyl)-amino]-4-methyl-pentanoic acid]",6.24
13,"CC(C)C[C@H](NC(=O)c1ccc2c(c1)nc(CC1CCCC1)n2C1CCCCC1)C(=O)O [Example 112, (S)-2-[(1-Cyclohexyl-2-cyclopentylmethyl-1H-benzoimidazole-5-carbonyl)-amino]-4-methyl-pentanoic acid]",4.89
14,"CCC(C)Cn1c(Cc2cccs2)nc2cc(C(=O)N[C@@H](CC(C)C)C(=O)O)ccc21 (stereo partly drawn) [Example 113, (S)-4-Methyl-2-{[1-(2-methyl-butyl)-2-thiophen-2-ylmethyl-1H-benzoimidazole-5-carbonyl]-amino}-pentanoic acid]",4.66
15,"CCC(CC)n1c(Cc2cccs2)nc2cc(C(=O)N[C@@H](CC(C)C)C(=O)O)ccc21 [Example 114, (S)-2-{[1-(1-Ethyl-propyl)-2-thiophen-2-ylmethyl-1H-benzoimidazole-5-carbonyl]-amino}-4-methyl-pentanoic acid]",6.73
16,"Cc1ccc(-n2c(Cc3cccs3)nc3cc(C(=O)N[C@@H](CC(C)C)C(=O)O)ccc32)cc1 [Example 115, (S)-4-Methyl-2-[(2-thiophen-2-ylmethyl-1-p-tolyl-1H-benzoimidazole-5-carbonyl)-amino]-pentanoic acid]",4.46
17,"CCC(CC)n1c(Cc2ccccc2)nc2cc(C(=O)N[C@@H](CC(C)C)C(=O)O)ccc21 [Example 116, (S)-2-{[2-Benzyl-1-(1-ethyl-propyl)-1H-benzoimidazole-5-carbonyl]-amino}-4-methyl-pentanoic acid]",5.17
18,"CCC(CC)n1c(Cc2ccsc2)nc2cc(C(=O)N[C@@H](CC(C)C)C(=O)O)ccc21 [Example 117, (S)-2-{[1-(1-Ethyl-propyl)-2-thiophen-3-ylmethyl-1H-benzoimidazole-5-carbonyl]-amino}-4-methyl-pentanoic acid]",6.38
19,"CCC(CC)n1c(Cc2ccoc2)nc2cc(C(=O)N[C@@H](CC(C)C)C(=O)O)ccc21 [Example 118, (S)-2-{[1-(1-Ethyl-propyl)-2-furan-3-ylmethyl-1H-benzoimidazole-5-carbonyl]-amino}-4-methyl-pentanoic acid]",6.65
20,"CCC(CC)n1c(Cc2ccc(C)s2)nc2cc(C(=O)N[C@@H](CC(C)C)C(=O)O)ccc21 [Example 119, (S)-2-{[1-(1-Ethyl-propyl)-2-(5-methyl-thiophen-2-ylmethyl)-1H-benzoimidazole-5-carbonyl]-amino}-4-methyl-pentanoic acid]",4.48
21,"CCC(CC)n1c(CC2CCCCC2)nc2cc(C(=O)N[C@@H](CC(C)C)C(=O)O)ccc21 [Example 120, (S)-2-{[2-Cyclohexylmethyl-1-(1-ethyl-propyl)-1H-benzoimidazole-5-carbonyl]-amino}-4-methyl-pentanoic acid]",4.62
22,"CCC(C)[C@H](NC(=O)c1ccc2c(c1)nc(Cc1cccs1)n2C(CC)CC)C(=O)O (stereo partly drawn) [Example 121, (S)-2-{[1-(1-Ethyl-propyl)-2-thiophen-2-ylmethyl-1H-benzoimidazole-5-carbonyl]-amino}-3-methyl-pentanoic acid]",7.13
23,"CCC(CC)n1c(Cc2cccs2)nc2cc(C(=O)N[C@H](C(=O)O)C(C)C)ccc21 [Example 122, (S)-2-{[1-(1-Ethyl-propyl)-2-thiophen-2-ylmethyl-1H-benzoimidazole-5-carbonyl]-amino}-3-methyl-butyric acid]",5.36
24,"CCC(CC)n1c(Cc2cccs2)nc2cc(C(=O)N[C@@H](CCSC)C(=O)O)ccc21 [Example 123, (S)-2-{[1-(1-Ethyl-propyl)-2-thiophen-2-ylmethyl-1H-benzoimidazole-5-carbonyl]-amino}-4-methylsulfanyl-butyric acid]",5.73
